Reference: patent publication US20090074886A1, “GSK-3 INHIBITORS” (Novartis Vaccines and Diagnostics Inc., priority 2003, published 2009)

Experiments:
[1] = tested on: ST2 cells; experiment: Osteogenesis of multipotential ST2 cells, Alizarin Red-S staining for mineralization; format: cell-based; details: 3 μM on days 0 and 2 vs DMSO control; Alizarin Red-S stain on day 10; FIG. 1B
Description: FIG. 1B. Multipotential ST2 cells were induced to undergo osteogenesis as described (Hankenson and Bornstein 2002). On days 0 and 2, cells were treated with DMSO (control) or 3 μM CHIR99021 6-[(2-{[4-(2,4-dichlorophenyl)-5-(4-methylimidazol-2-yl)pyrimidin-2-yl]amino}ethyl)amino]pyridine-3-carbonitrile (Chiron Corporation, Emeryville, Calif.). On day 10, cells were stained with Alizarin Red-S for mineralization.

[2] = tested on: 3T3-L1 preadipocyes; details: cited from earlier work

Cc1c[nH]c(-c2cnc(NCCNc3ccc(C#N)cn3)nc2-c2ccc(Cl)cc2Cl)n1 [CHIR99021, 6-[(2-{[4-(2,4-dichlorophenyl)-5-(4-methylimidazol-2-yl)pyrimidin-2-yl]amino}ethyl)amino]pyridine-3-carbonitrile]
osteoblastogenesis and mineralization of bipotential ST2 cells [1]: increases osteoblastogenesis and mineralization
Wnt signaling in vitro [2]: mimic Wnt signaling
adipocyte conversion ([2]; in vitro): blocking adipocyte conversion
